From publication PMC3062711 (Biochimica et biophysica acta, 2010) come the findings set out here.

pIC50: −log10 of the molar value.

In this assay the target is human TRPA1 channel (hTRPA1) (Homo sapiens, UniProt O75762). The experiment in a line: inside-out patch clamp recording, hTRPA1 expressed in HEK293T cells. It is filed as cell-based. Background: Patch clamp records ionic current or voltage across a cell membrane.
Chain of human TRPA1 channel (hTRPA1) (O75762 whole entry): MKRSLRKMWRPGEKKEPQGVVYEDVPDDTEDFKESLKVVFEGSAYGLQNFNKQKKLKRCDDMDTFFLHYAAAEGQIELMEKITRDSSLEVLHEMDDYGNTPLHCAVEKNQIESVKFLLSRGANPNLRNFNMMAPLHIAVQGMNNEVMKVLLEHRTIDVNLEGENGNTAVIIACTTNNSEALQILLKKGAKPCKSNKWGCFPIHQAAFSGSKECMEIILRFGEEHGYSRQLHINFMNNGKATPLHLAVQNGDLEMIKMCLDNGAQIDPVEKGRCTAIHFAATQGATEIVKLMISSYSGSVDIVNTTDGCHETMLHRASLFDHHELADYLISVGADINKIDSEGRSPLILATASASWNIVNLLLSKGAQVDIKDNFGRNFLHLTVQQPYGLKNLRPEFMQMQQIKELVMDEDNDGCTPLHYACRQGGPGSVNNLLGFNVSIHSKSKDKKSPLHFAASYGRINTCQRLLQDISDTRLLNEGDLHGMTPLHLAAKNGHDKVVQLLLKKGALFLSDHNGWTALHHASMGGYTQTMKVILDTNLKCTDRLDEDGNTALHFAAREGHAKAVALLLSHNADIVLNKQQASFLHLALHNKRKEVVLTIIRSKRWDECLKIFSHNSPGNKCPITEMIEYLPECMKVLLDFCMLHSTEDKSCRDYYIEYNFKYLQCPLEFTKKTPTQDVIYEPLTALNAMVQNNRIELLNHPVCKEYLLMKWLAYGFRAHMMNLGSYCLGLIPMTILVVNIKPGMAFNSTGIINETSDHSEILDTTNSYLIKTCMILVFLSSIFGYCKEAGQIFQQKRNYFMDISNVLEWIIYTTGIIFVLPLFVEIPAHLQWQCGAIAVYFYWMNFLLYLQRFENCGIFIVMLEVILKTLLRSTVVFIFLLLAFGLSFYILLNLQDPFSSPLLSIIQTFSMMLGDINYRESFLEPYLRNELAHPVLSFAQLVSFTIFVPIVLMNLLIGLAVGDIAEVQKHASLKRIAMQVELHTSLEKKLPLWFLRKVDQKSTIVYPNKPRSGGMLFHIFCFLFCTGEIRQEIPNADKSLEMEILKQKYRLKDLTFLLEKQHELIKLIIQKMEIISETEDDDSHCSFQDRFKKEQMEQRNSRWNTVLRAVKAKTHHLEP

The term pIC50 denotes −log10 of the IC50, conventionally taken in molar units. Read a high pIC50 as a low IC50. For Ruthenium red [RR], the pIC50 is approximately 5.74.
